Tests used:
[1] = biological target: Dual specificity mitogen-activated protein kinase kinase 2 (Homo sapiens) (UniProt P36507); conditions: Compound concentration 1000.0 nM
[2] = biological target: Serine/threonine-protein kinase 35 (Homo sapiens) (UniProt Q8TDR2); conditions: Compound concentration 1000.0 nM
[3] = biological target: Serine/threonine-protein kinase ULK1 (Homo sapiens) (UniProt O75385); conditions: Compound concentration 1000.0 nM
[4] = biological target: NT-3 growth factor receptor (Homo sapiens) (UniProt Q16288); conditions: Compound concentration 1000.0 nM
[5] = biological target: MAO-B (amine oxidase [flavin-containing] B) (Homo sapiens, UniProt P27338); assay: MAO-B (h) recombinant enzyme Eurofins-Cerep enzyme and uptake assay; set-up: incubation time 60 min, incubation temperature 37°C, substrate/stimulus/tracer D-Luciferin derivative (4 µM); conditions: probe D-Luciferin derivative (4 µM), compound concentration 10 uM, read-out: % Inhibition of Control Values (Mean n=2)
[6] = biological target: Calcium/calmodulin-dependent protein kinase type IV (Homo sapiens) (UniProt Q16566); conditions: Compound concentration 1000.0 nM
[7] = biological target: Activated CDC42 kinase 1 (Homo sapiens) (UniProt Q07912); conditions: Compound concentration 1000.0 nM
[8] = biological target: Bone morphogenetic protein receptor type-2 (Homo sapiens) (UniProt Q13873); conditions: Compound concentration 1000.0 nM
[9] = biological target: Acetylcholinesterase (Homo sapiens) (UniProt P22303); assay: Acetylcholinesterase (h) Eurofins-Cerep enzyme and uptake assay; conditions: Compound concentration 10.0 uM
[10] = biological target: Serine/threonine-protein kinase Nek7 (Homo sapiens) (UniProt Q8TDX7); conditions: Compound concentration 1000.0 nM
[11] = biological target: Kappa-type opioid receptor (Homo sapiens) (UniProt P41145); conditions: Compound concentration 10.0 uM
[12] = biological target: Tyrosine-protein kinase Srms (Homo sapiens) (UniProt Q9H3Y6); conditions: Compound concentration 1000.0 nM
[13] = biological target: Protein-tyrosine kinase 6 (Homo sapiens) (UniProt Q13882); conditions: Compound concentration 1000.0 nM
[14] = biological target: Activin receptor type-2B (Homo sapiens) (UniProt Q13705); conditions: Compound concentration 1000.0 nM
[15] = system: Tyrosine-protein kinase ABL1 (Homo sapiens), P00519 [Y253F]; conditions: Compound concentration 1000.0 nM
[16] = biological target: Ephrin type-A receptor 1 (Homo sapiens) (UniProt P21709); conditions: Compound concentration 1000.0 nM
[17] = biological target: Serine/threonine-protein kinase Nek6 (Homo sapiens) (UniProt Q9HC98); conditions: Compound concentration 1000.0 nM
[18] = biological target: Serine/threonine-protein kinase DCLK1 (Homo sapiens) (UniProt O15075); conditions: Compound concentration 1000.0 nM
[19] = biological target: Serine/threonine-protein kinase 32A (Homo sapiens) (UniProt Q8WU08); conditions: Compound concentration 1000.0 nM
[20] = biological target: Ribosomal protein S6 kinase alpha-3 (Homo sapiens) (UniProt P51812); conditions: Compound concentration 1000.0 nM
[21] = biological target: Ribosomal protein S6 kinase alpha-6 (Homo sapiens) (UniProt Q9UK32); conditions: Compound concentration 1000.0 nM
[22] = biological target: Serine/threonine-protein kinase STK11 (Homo sapiens) (UniProt Q15831); conditions: Compound concentration 1000.0 nM
[23] = biological target: Prostaglandin E2 receptor EP2 subtype (Homo sapiens) (UniProt P43116); assay: EP2 (h) Eurofins-Cerep binding assay; set-up: ligand concentration 3 nM; conditions: filed as agonist, Compound concentration 10.0 uM
[24] = biological target: Interleukin-1 receptor-associated kinase 3 (Homo sapiens) (UniProt Q9Y616); conditions: Compound concentration 1000.0 nM
[25] = biological target: Sodium-dependent dopamine transporter (Homo sapiens) (UniProt Q01959); assay: dopamine transporter (h) Eurofins-Cerep binding assay; set-up: ligand concentration 4 nM; conditions: filed as antagonist, Compound concentration 10.0 uM
[26] = biological target: Serine/threonine-protein kinase ICK (Homo sapiens) (UniProt Q9UPZ9); conditions: Compound concentration 1000.0 nM
[27] = system: Epidermal growth factor receptor (Homo sapiens), P00533 [UNDEFINED MUTATION]; conditions: Compound concentration 1000.0 nM
[28] = biological target: Serine/threonine-protein kinase PAK 3 (Homo sapiens) (UniProt O75914); conditions: Compound concentration 1000.0 nM
[29] = biological target: Ribosomal protein S6 kinase alpha-4 (Homo sapiens) (UniProt O75676); conditions: Compound concentration 1000.0 nM
[30] = biological target: Serine/threonine-protein kinase N1 (Homo sapiens) (UniProt Q16512); conditions: Compound concentration 1000.0 nM
[31] = biological target: T1, Alpha-2A adrenergic receptor (Homo sapiens) (UniProt P08913); assay: Alpha2A (h) Eurofins-Cerep binding assay; set-up: ligand concentration 1 nM; conditions: filed as antagonist, Compound concentration 10.0 uM
T1 sequence (whole entry): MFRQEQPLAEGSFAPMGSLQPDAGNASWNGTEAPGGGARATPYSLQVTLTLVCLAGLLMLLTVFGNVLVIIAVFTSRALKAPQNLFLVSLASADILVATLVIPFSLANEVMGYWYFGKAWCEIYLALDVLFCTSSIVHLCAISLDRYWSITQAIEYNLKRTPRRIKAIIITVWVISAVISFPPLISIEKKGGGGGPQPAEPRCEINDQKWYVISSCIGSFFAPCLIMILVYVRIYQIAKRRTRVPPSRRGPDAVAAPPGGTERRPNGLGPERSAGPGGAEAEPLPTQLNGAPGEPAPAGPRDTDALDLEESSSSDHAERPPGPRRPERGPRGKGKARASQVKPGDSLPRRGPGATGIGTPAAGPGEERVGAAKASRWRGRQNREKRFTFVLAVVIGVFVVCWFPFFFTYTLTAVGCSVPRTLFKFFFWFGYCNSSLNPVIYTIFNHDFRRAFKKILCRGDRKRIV

[32] = biological target: T2, Sigma non-opioid intracellular receptor 1 (Homo sapiens, UniProt Q99720); assay: GPCRScan assay: inhibition of Sigma 1; set-up: radioligand conc. used [nm] 4.0 – 5.0, parental cells HEKT
[33] = system: Tyrosine-protein kinase ABL1 (Homo sapiens), P00519 [F317I]; conditions: Compound concentration 1000.0 nM
[34] = biological target: Maternal embryonic leucine zipper kinase (Homo sapiens) (UniProt Q14680); conditions: Compound concentration 1000.0 nM
[35] = biological target: Leukocyte tyrosine kinase receptor (Homo sapiens) (UniProt P29376); conditions: Compound concentration 1000.0 nM
[36] = biological target: T2, Sigma non-opioid intracellular receptor 1; conditions: Compound concentration 10.0 uM
[37] = biological target: Microtubule-associated serine/threonine-protein kinase 1 (Homo sapiens) (UniProt Q9Y2H9); conditions: Compound concentration 1000.0 nM
[38] = biological target: Mu-type opioid receptor (Homo sapiens) (UniProt P35372); assay: mu (MOP) (h) Eurofins-Cerep binding assay; set-up: ligand concentration 0.5 nM; conditions: filed as agonist, Compound concentration 10.0 uM

T2 sequence (Q99720 whole entry): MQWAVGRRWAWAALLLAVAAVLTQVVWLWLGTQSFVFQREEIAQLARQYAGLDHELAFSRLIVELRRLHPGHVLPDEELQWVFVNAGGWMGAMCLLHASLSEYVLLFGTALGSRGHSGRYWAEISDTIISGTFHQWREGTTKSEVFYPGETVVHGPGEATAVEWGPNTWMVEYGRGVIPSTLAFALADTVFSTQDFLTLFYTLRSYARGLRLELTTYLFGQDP
Chain of Serine/threonine-protein kinase DCLK1 (Homo sapiens) (O15075 whole entry): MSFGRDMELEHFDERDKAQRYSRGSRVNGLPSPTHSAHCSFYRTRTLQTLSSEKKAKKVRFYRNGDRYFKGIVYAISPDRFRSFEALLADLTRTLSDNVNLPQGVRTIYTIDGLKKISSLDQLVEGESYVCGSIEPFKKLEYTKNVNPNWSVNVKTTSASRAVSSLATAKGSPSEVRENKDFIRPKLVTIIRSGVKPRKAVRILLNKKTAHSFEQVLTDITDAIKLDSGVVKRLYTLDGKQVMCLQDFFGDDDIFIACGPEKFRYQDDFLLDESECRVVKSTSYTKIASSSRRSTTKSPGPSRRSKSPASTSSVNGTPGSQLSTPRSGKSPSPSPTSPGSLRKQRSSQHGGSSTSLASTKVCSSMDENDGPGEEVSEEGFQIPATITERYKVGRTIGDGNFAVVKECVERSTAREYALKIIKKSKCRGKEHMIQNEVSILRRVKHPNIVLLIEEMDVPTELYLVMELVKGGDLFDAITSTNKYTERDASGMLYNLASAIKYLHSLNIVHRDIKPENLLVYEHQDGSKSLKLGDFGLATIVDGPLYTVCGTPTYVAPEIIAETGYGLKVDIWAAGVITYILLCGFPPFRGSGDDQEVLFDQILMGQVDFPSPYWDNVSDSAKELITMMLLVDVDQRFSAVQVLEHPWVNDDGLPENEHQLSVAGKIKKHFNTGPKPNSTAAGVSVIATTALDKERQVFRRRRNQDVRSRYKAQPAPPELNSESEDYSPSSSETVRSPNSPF
Chain of Tyrosine-protein kinase Srms (Homo sapiens) (Q9H3Y6 whole entry): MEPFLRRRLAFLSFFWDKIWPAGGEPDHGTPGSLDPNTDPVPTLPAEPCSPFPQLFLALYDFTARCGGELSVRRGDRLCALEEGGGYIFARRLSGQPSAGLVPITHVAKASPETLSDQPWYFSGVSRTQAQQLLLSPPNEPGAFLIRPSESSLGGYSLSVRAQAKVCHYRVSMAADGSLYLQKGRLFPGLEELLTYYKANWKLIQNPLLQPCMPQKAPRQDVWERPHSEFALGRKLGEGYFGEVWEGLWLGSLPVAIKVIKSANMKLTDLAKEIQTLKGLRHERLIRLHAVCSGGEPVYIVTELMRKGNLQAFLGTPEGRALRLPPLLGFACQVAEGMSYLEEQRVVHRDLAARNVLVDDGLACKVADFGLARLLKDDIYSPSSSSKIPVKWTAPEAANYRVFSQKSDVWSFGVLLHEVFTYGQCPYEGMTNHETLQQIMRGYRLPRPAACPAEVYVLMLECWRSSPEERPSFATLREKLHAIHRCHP
Chain of Epidermal growth factor receptor (Homo sapiens), P00533 [UNDEFINED MUTATION] (P00533 whole entry, looked up, change not shown): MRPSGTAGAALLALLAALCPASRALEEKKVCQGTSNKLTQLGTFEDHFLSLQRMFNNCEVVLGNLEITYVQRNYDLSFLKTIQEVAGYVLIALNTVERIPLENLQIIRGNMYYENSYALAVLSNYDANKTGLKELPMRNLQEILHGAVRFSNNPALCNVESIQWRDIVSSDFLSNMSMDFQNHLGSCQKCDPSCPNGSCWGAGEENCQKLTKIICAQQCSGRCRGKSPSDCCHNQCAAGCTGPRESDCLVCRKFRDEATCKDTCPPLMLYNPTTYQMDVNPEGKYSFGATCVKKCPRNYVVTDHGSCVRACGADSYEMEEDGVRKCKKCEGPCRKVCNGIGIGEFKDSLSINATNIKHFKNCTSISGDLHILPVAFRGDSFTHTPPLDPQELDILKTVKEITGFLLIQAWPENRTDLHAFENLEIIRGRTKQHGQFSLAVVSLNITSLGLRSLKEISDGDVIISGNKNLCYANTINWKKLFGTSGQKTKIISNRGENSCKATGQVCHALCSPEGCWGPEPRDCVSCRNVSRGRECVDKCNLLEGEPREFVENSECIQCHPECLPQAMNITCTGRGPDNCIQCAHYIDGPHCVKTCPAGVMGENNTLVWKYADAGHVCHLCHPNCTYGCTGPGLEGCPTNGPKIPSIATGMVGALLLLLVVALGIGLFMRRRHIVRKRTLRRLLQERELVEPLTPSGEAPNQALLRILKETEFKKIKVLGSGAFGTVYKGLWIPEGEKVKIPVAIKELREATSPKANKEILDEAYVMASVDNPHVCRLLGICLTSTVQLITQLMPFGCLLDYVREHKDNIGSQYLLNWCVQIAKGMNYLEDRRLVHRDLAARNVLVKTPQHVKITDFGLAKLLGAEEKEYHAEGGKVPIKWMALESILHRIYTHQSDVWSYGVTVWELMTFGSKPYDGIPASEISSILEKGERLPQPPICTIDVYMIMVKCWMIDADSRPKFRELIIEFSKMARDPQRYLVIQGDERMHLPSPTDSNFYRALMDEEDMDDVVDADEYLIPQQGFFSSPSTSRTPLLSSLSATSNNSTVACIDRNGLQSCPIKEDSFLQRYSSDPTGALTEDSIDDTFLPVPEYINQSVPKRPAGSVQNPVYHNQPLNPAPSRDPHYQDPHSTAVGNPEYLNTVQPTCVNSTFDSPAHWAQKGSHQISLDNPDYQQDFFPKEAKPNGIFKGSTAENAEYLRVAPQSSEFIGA
Chain of Ribosomal protein S6 kinase alpha-3 (Homo sapiens) (P51812 whole entry): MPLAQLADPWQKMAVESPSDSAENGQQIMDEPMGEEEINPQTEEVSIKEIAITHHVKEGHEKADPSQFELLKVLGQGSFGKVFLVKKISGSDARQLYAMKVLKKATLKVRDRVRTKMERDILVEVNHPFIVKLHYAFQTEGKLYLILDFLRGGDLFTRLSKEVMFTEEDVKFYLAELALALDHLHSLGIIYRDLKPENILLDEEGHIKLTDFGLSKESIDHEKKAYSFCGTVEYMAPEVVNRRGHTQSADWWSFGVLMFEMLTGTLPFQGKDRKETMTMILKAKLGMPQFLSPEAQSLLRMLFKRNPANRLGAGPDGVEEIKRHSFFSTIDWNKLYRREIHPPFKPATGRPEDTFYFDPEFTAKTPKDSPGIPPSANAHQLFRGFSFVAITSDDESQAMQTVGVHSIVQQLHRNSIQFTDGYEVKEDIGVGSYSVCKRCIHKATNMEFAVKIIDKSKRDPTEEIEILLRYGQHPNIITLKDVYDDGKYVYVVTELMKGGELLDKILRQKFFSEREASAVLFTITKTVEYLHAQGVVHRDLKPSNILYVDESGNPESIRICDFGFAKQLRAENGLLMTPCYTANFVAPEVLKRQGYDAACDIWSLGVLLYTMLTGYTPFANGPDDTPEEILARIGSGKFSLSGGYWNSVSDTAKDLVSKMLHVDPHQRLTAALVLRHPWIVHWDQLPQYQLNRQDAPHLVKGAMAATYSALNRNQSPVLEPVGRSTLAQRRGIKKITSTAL
Chain of Microtubule-associated serine/threonine-protein kinase 1 (Homo sapiens) (Q9Y2H9 whole entry, looked up): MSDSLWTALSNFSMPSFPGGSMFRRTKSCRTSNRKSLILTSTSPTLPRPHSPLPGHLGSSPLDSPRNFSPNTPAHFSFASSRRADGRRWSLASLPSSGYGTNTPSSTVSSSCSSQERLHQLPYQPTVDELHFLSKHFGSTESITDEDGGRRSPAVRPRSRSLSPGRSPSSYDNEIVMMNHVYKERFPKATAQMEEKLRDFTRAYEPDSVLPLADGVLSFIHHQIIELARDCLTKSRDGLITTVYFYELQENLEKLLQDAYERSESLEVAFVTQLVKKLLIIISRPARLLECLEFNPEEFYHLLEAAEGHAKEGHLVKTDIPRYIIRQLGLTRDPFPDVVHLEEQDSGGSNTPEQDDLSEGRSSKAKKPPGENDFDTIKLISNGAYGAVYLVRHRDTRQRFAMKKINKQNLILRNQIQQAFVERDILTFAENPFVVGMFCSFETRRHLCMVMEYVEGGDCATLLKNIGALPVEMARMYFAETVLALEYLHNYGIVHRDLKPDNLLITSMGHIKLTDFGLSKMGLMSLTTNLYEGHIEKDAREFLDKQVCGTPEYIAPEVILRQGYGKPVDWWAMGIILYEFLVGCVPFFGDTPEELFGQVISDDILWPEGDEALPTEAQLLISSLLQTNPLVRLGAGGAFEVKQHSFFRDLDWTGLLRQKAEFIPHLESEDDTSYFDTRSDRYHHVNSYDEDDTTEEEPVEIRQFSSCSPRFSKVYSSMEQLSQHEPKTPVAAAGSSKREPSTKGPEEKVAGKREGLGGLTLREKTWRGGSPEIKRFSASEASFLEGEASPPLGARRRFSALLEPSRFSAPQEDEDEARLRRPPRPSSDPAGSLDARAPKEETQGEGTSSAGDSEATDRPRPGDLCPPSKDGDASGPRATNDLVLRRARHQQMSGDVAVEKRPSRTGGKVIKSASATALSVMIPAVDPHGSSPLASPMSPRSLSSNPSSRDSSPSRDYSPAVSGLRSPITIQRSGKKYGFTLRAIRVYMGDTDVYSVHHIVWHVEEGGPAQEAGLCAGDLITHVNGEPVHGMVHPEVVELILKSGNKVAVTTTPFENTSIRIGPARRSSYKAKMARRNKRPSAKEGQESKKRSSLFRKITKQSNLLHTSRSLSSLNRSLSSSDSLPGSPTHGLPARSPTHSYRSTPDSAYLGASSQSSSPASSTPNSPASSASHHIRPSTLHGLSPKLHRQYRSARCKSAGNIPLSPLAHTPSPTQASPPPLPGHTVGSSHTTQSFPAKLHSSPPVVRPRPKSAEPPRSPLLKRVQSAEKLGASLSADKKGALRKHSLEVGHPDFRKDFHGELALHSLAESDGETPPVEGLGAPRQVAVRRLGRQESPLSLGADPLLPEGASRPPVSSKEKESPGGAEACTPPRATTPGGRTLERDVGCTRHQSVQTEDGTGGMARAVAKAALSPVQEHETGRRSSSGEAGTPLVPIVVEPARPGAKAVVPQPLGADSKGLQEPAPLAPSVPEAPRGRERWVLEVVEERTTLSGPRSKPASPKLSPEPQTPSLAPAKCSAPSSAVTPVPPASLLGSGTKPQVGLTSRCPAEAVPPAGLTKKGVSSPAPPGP

Structure (SMILES)	residual activity [1] [%]	residual activity [2] [%]	residual activity [3] [%]	residual activity [4] [%]	inhibition at 60 min, 10 µM [5] [%]	residual activity [6] [%]	residual activity [7] [%]	residual activity [8] [%]	% Inhibition of Control Values (Mean n=2) [9] [%]	residual activity [10] [%]	inhibition [11] [%]	residual activity [12] [%]	residual activity [13] [%]	residual activity [14] [%]	residual activity [15] [%]	residual activity [16] [%]	residual activity [17] [%]	residual activity [18] [%]	residual activity [19] [%]	residual activity [20] [%]	other results
COc1ccc2c(c1)O[C@@H](c1ccc(OC)c(OC)c1)C[C@H]2NC(=O)C1(c2ccc3c(c2)OC(F)(F)O3)CC1 [A-1596586]	87	98	75	83	11.9	89	100	68	-6.2	100	34.1	94	100	96	78	93	100	82	100	100	residual activity [21]: 84%; residual activity [22]: 65%; % Inhibition of Control Specific Binding (Mean n=2) [23]: 9.3%; residual activity [24]: 85%; % Inhibition of Control Specific Binding (Mean n=2) [25]: 6.1%; residual activity [26]: 74%; residual activity [27]: 68%; residual activity [28]: 87%; residual activity [29]: 81%; residual activity [30]: 96%; % Inhibition of Control Specific Binding (Mean n=2) [31]: 8.7%; Ki [32]: 315 nM; residual activity [33]: 78%; residual activity [34]: 65%; residual activity [35]: 100%; inhibition [36]: 82.8%; residual activity [37]: 100%; % Inhibition of Control Specific Binding (Mean n=2) [38]: 9.8%
COc1ccc2c(c1)O[C@H](c1ccc(OC)c(OC)c1)C[C@@H]2NC(=O)C1(c2ccc3c(c2)OC(F)(F)O3)CC1 [A-1596584]	100	100	88	92	16.7	100	99	92	-3.9	100	27.4	87	100	100	93	88	100	100	100	93	residual activity [21]: 87%; residual activity [22]: 100%; % Inhibition of Control Specific Binding (Mean n=2) [23]: 13.1%; residual activity [24]: 86%; % Inhibition of Control Specific Binding (Mean n=2) [25]: 25.8%; residual activity [26]: 80%; residual activity [27]: 64%; residual activity [28]: 100%; residual activity [29]: 100%; residual activity [30]: 100%; % Inhibition of Control Specific Binding (Mean n=2) [31]: 5.1%; Ki [32]: 2740 nM; residual activity [33]: 100%; residual activity [34]: 78%; residual activity [35]: 100%; inhibition [36]: 53%; residual activity [37]: 100%; % Inhibition of Control Specific Binding (Mean n=2) [38]: 11.3%

Source: ChEMBL document CHEMBL4507262, “Data for DCP probe A-1596586” (2021)
